Measurements: PMC9458095, “In Vitro Evaluation of In Silico Screening Approaches in Search for Selective ACE2 Binding Chemical Probes” (Molecules, 2022)
Read-outs that look alike come from different tables or passages of the source.

How the values were obtained:
human ACE2 (CHEMBL3736) = settings: ChEMBL 26, cited from earlier work
ACE2 [1] = target: T1, ACE2 (Homo sapiens, UniProt Q9BYF1); assay: ACE2 inhibitor screening kit (Abcam ab273373), fluorescence enzymatic assay, MCA-based peptide substrate; assay type: biochemical; settings: for inhibition at 20 µM: 20 µM final concentration, n = 1, 25 µL, read-out: Inhibition% (primary screen hits)
T1 construct: purchased Abcam ab273373
Excerpt: Despite the commercial availability of ACE2 Inhibitor Screening Kits the optimal HTS protocols are still not published and their validation is still needed. Among available kits the Abcam, ab273373 was used. This assay is based on the ability of active angiotensin-converting enzyme (ACE2) to cleave a synthetic MCA-based peptide substrate (the structure not disclosed by the manufacturer) and release a free fluorophore. The released fluorophore can be easily quantified using a standard fluorescence microplate reader. During this screening campaign, the next milestones were estimated: (i) optimization of the test compounds solutions used volume (without loss of performance and analytical signal recognition); (ii) optimization of reaction volume and concentrations of the reagents; (iii) determination of IC50 for known inhibitor MLN-4760 (EN300-22203532) and reference inhibitor from the kit (the structure not disclosed by manufacturer) in new validated conditions; (iv) primary screening of 577 selected compounds; (v) hit confirmation; (vi) dose-response curve (DRC) of confirmed hits.
The commercial Abcam (ab273373) Angiotensin II Converting Enzyme (ACE2) Inhibitor Screening Kit and 384-well 3544 Corning low volume, black clear bottom plates were used. The reagent preparation was performed in accord with kit instruction. In order to prepare the required enzyme concentration, we dissolved […] of stock enzyme solution (concentration in stock and MW not disclosed) in 198 µL of ACE2 Dilution Buffer (provided by the Manufacturer), then aliquoted the entire volume into 25 µL and frozen at −70 °C. A substrate solution calculated for one assay well contained 0.5 µL of stock Substrate solution and 9.5 µL of ACE2 Assay Buffer, stored at −70 °C. Reference inhibitor from the kit (five µL in stock, structure, and MW not disclosed) was not aliquoted, 50 µL of ACE Assay Buffer should be added directly before the experiment.
Primary screen assay conditions. Volume: 25 µL; Concentrations: enzyme and substrate solutions prepared according to the instructions and further diluted both to 1:2 in the Assay mixture. Assay buffer: provided by the Manufacturer (composition not disclosed, see SI for reference). Compounds: 20 µM final concentrations in the Assay mixture, n = 1. Reference Inhibitors: (1) Ref. inhibitor provided by the Manufacturer, 300 nM, (n = 4); (2) Compound from Enamine library EN300-22203532, 2.5 nM, (n = 4). Temperature: 25 °C. The enzyme solution was added into corresponding plate wells (columns 1–22), and buffer was added into wells corresponding to negative (Enzyme) control (columns 23, 24). Plates were incubated for 15 min at 25 °C. Then Substrate solution was added to all experimental wells. Plates were centrifuged and measurement started in kinetic mode (Exc/Em 320/420 nm). Results processing: two time points were chosen from kinetic curves for all wells and corresponding RFU values were obtained. ΔRFU/Δt were calculated for each curve and % of inhibition values were calculated from the equation: 100%—ΔRFU of sample/ΔRFU of Enzyme control*100%, according to the recommendation of the Manufacturer.
DRC and IC50 calculations. Concentrations: enzyme and substrate solutions were diluted both to 1:2 in the Assay mixture. Assay buffer: provided by the Manufacturer (composition not disclosed). Temperature: 25 °C. Compounds: 2-fold titrated from 100 µM, n = 4. Reference Inhibitors: (1) Ref. inhibitor Abcam 2-fold titrated from 1.5 µM, (n = 4); (2) Ref. inhibitor EN300-22203532, 2-fold titrated from 20 nM, (n = 4). Compounds were incubated with enzyme for 15 min. Plates were measured in kinetic mode (Exc/Em 320/420 nm). […]

ACE2 [2] = target: T1, ACE2; assay: as above; assay type: biochemical; settings: DRC measured three times each, 3-fold titration, 25 µL, enzyme and substrate 1:2; read-out: IC50 of reference inhibitors in optimized conditions
[3] = dose-response of confirmed hits, as in Figure 10, read-out: IC50(ACE2)
[4] = dose-response, 2-fold titrated, n = 4, 15 min incubation with enzyme, 25 °C, enzyme and substrate 1:2, read-out: IC50 (DRC, Figure 9)

T1 sequence (Q9BYF1 18-805): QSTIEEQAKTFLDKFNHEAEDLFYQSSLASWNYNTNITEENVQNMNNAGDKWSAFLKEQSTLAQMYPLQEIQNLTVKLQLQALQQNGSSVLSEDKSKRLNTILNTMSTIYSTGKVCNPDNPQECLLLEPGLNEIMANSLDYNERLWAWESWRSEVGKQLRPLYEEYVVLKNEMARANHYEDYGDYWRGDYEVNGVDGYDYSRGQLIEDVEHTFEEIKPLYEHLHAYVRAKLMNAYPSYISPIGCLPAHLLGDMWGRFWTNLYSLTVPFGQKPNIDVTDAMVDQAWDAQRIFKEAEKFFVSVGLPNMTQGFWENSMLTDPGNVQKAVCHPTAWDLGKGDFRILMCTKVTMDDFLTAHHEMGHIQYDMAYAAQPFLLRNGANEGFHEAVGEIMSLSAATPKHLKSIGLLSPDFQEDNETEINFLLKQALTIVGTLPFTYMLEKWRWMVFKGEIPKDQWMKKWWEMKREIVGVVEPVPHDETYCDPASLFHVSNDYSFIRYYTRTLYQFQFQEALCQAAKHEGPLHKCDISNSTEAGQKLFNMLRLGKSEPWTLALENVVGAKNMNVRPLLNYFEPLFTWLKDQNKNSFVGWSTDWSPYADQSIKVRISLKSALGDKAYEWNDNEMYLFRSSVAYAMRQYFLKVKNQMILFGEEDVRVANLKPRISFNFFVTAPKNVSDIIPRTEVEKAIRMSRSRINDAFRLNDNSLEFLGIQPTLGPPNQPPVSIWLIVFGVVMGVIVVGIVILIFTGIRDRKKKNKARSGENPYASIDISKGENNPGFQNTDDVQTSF

Compound: CC[C@@H](C)[C@H](S)C(=O)N[C@@H](Cc1ccc(OCc2ccc(F)c(F)c2)cc1)C(=O)O [CHEMBL251808, CC[C@@H](C)[C@H](S)C(=O)N[C@@H](Cc1ccc(OCc2ccc(F)c(F)c2)cc1)C(O)=O]
- Ki (human ACE2 (CHEMBL3736); known selective ACE2 inhibitors): 0.00085 µM

Compound: CC(NC(=O)CCCCC(=O)O)c1ccc(-c2ccc(N(C)C)cc2)cc1 (centres unmarked) [Compound 1]
- inhibition at 20 µM (ACE2 [1]; enzyme and substrate 1:2): 38.8%
- IC50 (ACE2 [1]; [3]): 45.8 µM

Compound: Cc1ccc2nc(-c3ccc(NC(=O)CCC(=O)O)cc3)sc2c1 [Compound 2, Cc1ccc2nc(sc2c1)-c1ccc(NC(=O)CCC([O-])=O)cc1]
- inhibition at 20 µM (ACE2 [1]; enzyme and substrate 1:2): 74.1%
- IC50 (ACE2 [1]; [4]): 110 µM

Compound: O=C(O)CC(NC(=O)c1ccc(-c2ccc(F)cc2)o1)c1ccc(F)cc1 (centres unmarked) [Compound 3]
- inhibition at 20 µM (ACE2 [1]; enzyme and substrate 1:2): 28.9%
- IC50 (ACE2 [1]; [3]): 46.4 µM

Compound: Cc1ccc(CCC2CCN(C(=O)CN3CCCC3C(=O)O)CC2)cc1 (centres unmarked) [Compound 4]
- inhibition at 20 µM (ACE2 [1]; enzyme and substrate 1:2): 54%
- IC50 (ACE2 [1]; [3]): 16.8 µM

Compound: O=C(O)CSc1ccc(C(=O)/C=C/c2cnn(-c3ccccc3)c2)cc1F [Compound 5, OC(=O)CSc1ccc(cc1F)C(=O)C=Cc1cnn(c1)-c1ccccc1]
- inhibition at 20 µM (ACE2 [1]; enzyme and substrate 1:2): 29.8%
- IC50 (ACE2 [1]; [3]): 53.6 µM

Compound: CCC(C(=O)O)[S+]([O-])Cc1csc(-c2ccc3c(c2)OCO3)n1 (centres unmarked) [Compound 6]
- inhibition at 20 µM (ACE2 [1]; enzyme and substrate 1:2): 50.1%
- IC50 (ACE2 [1]; [4]): 67.3 µM

Compound: O=C(NC1CN(c2ccccc2)C1=O)c1ncccc1O (centres unmarked) [Compound 7]
- inhibition at 20 µM (ACE2 [1]; enzyme and substrate 1:2): 52.1%
- IC50 (ACE2 [1]; [3]): 269 µM

Compound: CC(C)C[C@H](N[C@@H](Cc1cncn1Cc1cc(Cl)cc(Cl)c1)C(=O)O)C(=O)O [MLN-4760, reference compound]
- IC50 (ACE2 [1]; [4]): 0.2 µM
- %inh_Ref EN300-22203532, Plate 1 (ACE2 [1]; primary screen QC, 2.5 nM, n = 4, plate 1): 69.9%
- %inh_Ref EN300-22203532, Plate 2 (ACE2 [1]; primary screen QC, 2.5 nM, n = 4, plate 2): 72.2%
- IC50 (ACE2 [2]): 0.0009 to 0.0025 µM
- IC50 (human ACE2 (CHEMBL3736); known selective ACE2 inhibitor): 0.00044 µM
